Among the test systems are A549 NSCLC; BT-549 breast; CAKI-1 renal; HCC-2998 colon; HL-60(TB) leukemia; HOP-92 NSCLC; IGROV1 ovarian; K-562 leukemia; MDA-MB-435; MOLT-4 leukemia; NCI-H226 lung; OVCAR-3 ovarian; OVCAR-4 ovarian; SF-268 CNS; SF-295 CNS; SK-OV-3 ovarian; SNB-75 CNS; TK-10 renal; U251 CNS; UACC-257 melanoma.
What all share (assay): inhibition of tumour cell growth, NCI panel, 48 h

Structures are written as SMILES.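 Protocol summary: plate cells (96-well), add compound at 5 concentrations, incubate 48 h, interpolate endpoints linearly. At the TGI there is no net growth.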 Some results are limits rather than exact numbers.

`O=c1[nH]/c(=C/c2ccc(OCc3ccccc3)cn2)c(=O)[nH]/c1=C/c1ccc([N+](=O)[O-])cc1`: the TGI with A549 NSCLC was over 100 µM; in the assay on BT-549 breast it was over 100 µM; in the assay on CAKI-1 renal, over 73.1 µM; with HCC-2998 colon it was over 100 µM; in the assay on HL-60(TB) leukemia, over 100 µM; with HOP-92 NSCLC, over 100 µM. The TGI in the assay with IGROV1 ovarian, with K-562 leukemia, with MDA-MB-435, in the assay with MOLT-4 leukemia, with NCI-H226 lung and with OVCAR-3 ovarian was over 100 µM throughout. For the same compound, the TGI with OVCAR-4 ovarian was over 100 µM; in the assay with SF-268 CNS, over 100 µM; in the assay on SF-295 CNS it was over 100 µM; in the assay on SK-OV-3 ovarian, over 100 µM; in the assay with SNB-75 CNS, 70.2 µM; in the assay on TK-10 renal, over 100 µM. The TGI with U251 CNS and with UACC-257 melanoma was over 100 µM in each case.

Regarding `COc1cc(OC)c2c(=O)cc(-c3ccccc3F)[nH]c2c1`, the TGI in the assay on A549 NSCLC was over 100 µM; with BT-549 breast, over 100 µM; in the assay with CAKI-1 renal, over 100 µM; in the assay with HCC-2998 colon, 52.3 µM; in the assay with HL-60(TB) leukemia it was over 100 µM; with HOP-92 NSCLC, over 100 µM. For the same compound, the TGI in the assay on IGROV1 ovarian, in the assay with K-562 leukemia, in the assay on MDA-MB-435, with MOLT-4 leukemia, with NCI-H226 lung and with OVCAR-3 ovarian was over 100 µM each time. Moreover, the TGI was 53.3 µM in the assay on OVCAR-4 ovarian; over 100 µM with SF-268 CNS; over 100 µM in the assay with SF-295 CNS; over 100 µM in the assay on SK-OV-3 ovarian; over 100 µM with SNB-75 CNS; 84.4 µM in the assay with TK-10 renal. For the same compound, the TGI with U251 CNS and in the assay with UACC-257 melanoma was over 100 µM each time.

For `CCCCc1c2c(nc3c1CCCC3O)CCCC2` (stereo not given), the TGI in the assay on A549 NSCLC, with BT-549 breast, with CAKI-1 renal, in the assay with HCC-2998 colon, in the assay on HL-60(TB) leukemia and in the assay on HOP-92 NSCLC was over 100 µM throughout. Besides, the TGI in the assay on IGROV1 ovarian, with K-562 leukemia, with MDA-MB-435, with MOLT-4 leukemia, with NCI-H226 lung and in the assay with OVCAR-3 ovarian was over 100 µM each time. The TGI with OVCAR-4 ovarian, in the assay with SF-268 CNS, with SF-295 CNS, in the assay with SK-OV-3 ovarian, with SNB-75 CNS and with TK-10 renal was over 100 µM each time. Besides, the TGI in the assay with U251 CNS and in the assay with UACC-257 melanoma was over 100 µM in each case.

For the compound `Cc1nc2ccc(S(=O)(=O)Nc3ccccc3)cc2c(=O)n1NC(=O)CNc1ccccc1`, the TGI with A549 NSCLC, in the assay with BT-549 breast, in the assay on CAKI-1 renal, in the assay on HCC-2998 colon, in the assay with HL-60(TB) leukemia and with HOP-92 NSCLC was over 100 µM throughout. For the same compound, the TGI in the assay on IGROV1 ovarian, in the assay with K-562 leukemia, in the assay with MDA-MB-435, in the assay on MOLT-4 leukemia, in the assay on NCI-H226 lung and with OVCAR-3 ovarian was over 100 µM in each case. Moreover, the TGI in the assay on OVCAR-4 ovarian, in the assay on SF-268 CNS, in the assay on SF-295 CNS, with SK-OV-3 ovarian, with SNB-75 CNS and with TK-10 renal was over 100 µM throughout. Besides, the TGI in the assay on U251 CNS and in the assay on UACC-257 melanoma was over 100 µM each time.

In the case of `O=C(CCc1ccccc1)ON1C(=S)NC(c2ccccc2)(c2ccccc2)C1=S`, the TGI in the assay with A549 NSCLC is over 100 µM; with BT-549 breast, over 100 µM; in the assay on CAKI-1 renal, over 100 µM; in the assay on HCC-2998 colon, over 100 µM; in the assay on HL-60(TB) leukemia, 61.2 µM; with HOP-92 NSCLC it was over 100 µM. Besides, the TGI with IGROV1 ovarian is 82.7 µM; in the assay with K-562 leukemia, over 100 µM; in the assay with MDA-MB-435, over 100 µM; in the assay on MOLT-4 leukemia it was 75.5 µM; in the assay on NCI-H226 lung, 93.1 µM; in the assay on OVCAR-3 ovarian, over 100 µM. Besides, the TGI in the assay on OVCAR-4 ovarian, in the assay with SF-268 CNS, in the assay on SF-295 CNS, in the assay on SK-OV-3 ovarian, with SNB-75 CNS and in the assay on TK-10 renal was over 100 µM throughout. Further, the TGI in the assay on U251 CNS and in the assay with UACC-257 melanoma was over 100 µM throughout.

Consider `COC(=O)c1ccccc1CC1Cc2ccc3c(c2C1)CCC3` (stereo not given), for which the TGI in the assay with A549 NSCLC was over 100 µM; in the assay with BT-549 breast, over 100 µM; in the assay on CAKI-1 renal, over 100 µM; in the assay with HCC-2998 colon it was 45.7 µM; in the assay with HL-60(TB) leukemia, 32.1 µM; in the assay on HOP-92 NSCLC, 52.5 µM. Also, the TGI with IGROV1 ovarian is over 100 µM; with K-562 leukemia, over 100 µM; with MDA-MB-435, 57.9 µM; with MOLT-4 leukemia, 53.9 µM; with NCI-H226 lung it was over 100 µM; in the assay with OVCAR-3 ovarian, over 100 µM. Further, the TGI in the assay on OVCAR-4 ovarian, in the assay with SF-268 CNS, in the assay with SF-295 CNS, with SK-OV-3 ovarian, in the assay on SNB-75 CNS and with TK-10 renal was over 100 µM throughout. The TGI in the assay with U251 CNS came out at 85.1 µM; with UACC-257 melanoma it was 28.6 µM.

The values above are taken from PubChem BioAssay (NCI).
